How the values were obtained:
Blood [1] = experiment: Retention time in human whole blood in presence of 0.1% formic acid in acetonitrile at 20 uM by LC-MS/MS method; format: ADME, tissue-based
Blood [2] = experiment: Drug metabolism in human whole blood treated with 20 uM RRx-001 assessed as compound formation by LC-MS/MS method; format: ADME, tissue-based
Blood [3] = experiment: Retention time in rat whole blood in presence of 0.1% formic acid in acetonitrile at 20 uM by LC-MS/MS method; format: ADME, tissue-based
Blood [4] = experiment: Drug metabolism in rat whole blood treated with 20 uM RRx-001 assessed as compound formation by LC-MS/MS method; format: ADME, tissue-based
Blood [5] = experiment: Retention time in human whole blood in presence of 0.1% formic acid in water at 20 uM by LC-MS/MS method; format: ADME, tissue-based
Blood [6] = experiment: Retention time in rat whole blood in presence of 0.1% formic acid in water at 20 uM by LC-MS/MS method; format: ADME, tissue-based
Blood [7] = experiment: Drug metabolism in rat whole blood assessed as [(S)-2-amino-5-(((R)-1-((carboxymethyl)amino)-3-((2-(3-(hydroxyimino)azetidin-1-yl)-2-oxoethyl)thio)-1-oxopropan-2-yl)amino)-5-oxopentanoic acid] formation at 20 uM by LC-MS/MS method; format: ADME, tissue-based
Blood [8] = experiment: AUC (0 to t) in Wistar Hanover rat blood at 10 mg/kg, iv administered as single dose; format: ADME, organism-based; set-up: dose 10 mg/kg, route intravenous; conditions: in vivo
[9] = Ratio of drug level in human blood to human plasma at 1 uM after 30 mins; format: ADME; conditions: whole blood
[10] = Stability in water; format: physicochemical; conditions: buffer
Blood [11] = experiment: Drug metabolism in human whole blood assessed as [(S)-2-amino-5-(((R)-1-((carboxymethyl)amino)-1-oxo-3-((2-oxo-2-(3-oxoazetidin-1-yl)ethyl)thio)propan-2-yl)amino)-5-oxopentanoic acid] formation at 20 uM by LC-MS/MS method; format: ADME, tissue-based
[12] = Ratio of drug level in human blood to human plasma at 20 uM after 30 mins; format: ADME; conditions: whole blood
[13] = Binding affinity to monkey hemoglobin assessed as protein bound compound level at 1 uM; format: ADME, Macaca mulatta; conditions: rhesus monkey, read-out: PB (converted)
Blood [14] = experiment: Drug level in Wistar Hanover rat blood at 10 mg/kg, iv administered as single dose after 168 hrs; format: ADME, organism-based; set-up: dose 10 mg/kg, route intravenous; conditions: in vivo
Blood [15] = experiment: Drug metabolism in human whole blood assessed as (R)-2-amino-3-((2-(3,3-dinitroazetidin-1-yl)-2-oxoethyl)thio)propanoic acid] formation at 20 uM by LC-MS/MS method; format: ADME, tissue-based
[16] = Volume of distribution in Wistar Hanover rat plasma at 10 mg/kg, iv administered as single dose; format: ADME, organism-based; set-up: dose 10 mg/kg, route intravenous
[17] = Ratio of drug level in rat blood to rat plasma at 1 uM after 30 mins; format: ADME, cell-free; conditions: whole blood
[18] = Drug level in Wistar Hanover rat bile at 10 mg/kg, iv administered as single dose after 24 hrs; format: ADME, organism-based; set-up: dose 10 mg/kg, route intravenous; conditions: in vivo
[19] = Binding affinity to monkey hemoglobin assessed as protein bound compound level at 20 uM; format: ADME, Macaca mulatta; conditions: rhesus monkey, read-out: PB (converted)
[20] = Binding affinity to human hemoglobin assessed as protein bound compound level at 1 uM; format: ADME; conditions: read-out: PB (converted)
[21] = Drug excretion in Wistar Hanover rat urine at 10 mg/kg, iv administered as single dose after 0 to 8 hrs; format: ADME, organism-based; set-up: dose 10 mg/kg, route intravenous; conditions: read-out: Drug excretion
Blood [22] = experiment: Drug level in Wistar Hanover rat blood at 10 mg/kg, iv administered as single dose after 168 hrs relative to total radioactivity; format: ADME, organism-based; set-up: dose 10 mg/kg, route intravenous; conditions: in vivo
[23] = Binding affinity to rat hemoglobin assessed as protein bound compound level at 1 uM; format: ADME; conditions: read-out: PB (converted)
[24] = Ratio of drug level in dog blood to dog plasma at 1 uM after 30 mins; format: ADME, Canis lupus familiaris; conditions: whole blood
Blood [25] = experiment: Drug metabolism in human whole blood assessed as [(R)-2-(2-amino-3-((2-(3,3-dinitroazetidin-1-yl)-2-oxoethyl)thio)propanamido)acetic acid] formation at 20 uM by LC-MS/MS method; format: ADME, tissue-based
[26] = Drug excretion in Wistar Hanover rat urine at 10 mg/kg, iv administered as single dose after 168 hrs; format: ADME, organism-based; set-up: dose 10 mg/kg, route intravenous; conditions: read-out: Drug excretion
[27] = Ratio of drug level in dog blood to dog plasma at 20 uM after 30 mins; format: ADME, Canis lupus familiaris; conditions: whole blood
Blood [28] = experiment: Drug metabolism in human whole blood assessed as [(S)-2-amino-5-(((R)-1-((carboxymethyl)amino)-3-((2-(3-nitroazetidin-1-yl)-2-oxoethyl)thio)-1-oxopropan-2-yl)amino)-5-oxopentanoic acid] formation at 20 uM by LC-MS/MS method; format: ADME, tissue-based
Blood [29] = experiment: Drug metabolism in human whole blood assessed as [(S)-2-amino-5-(((R)-1-((carboxymethyl)amino)-3-((2-(3,3-dinitroazetidin-1-yl)-2-oxoethyl)thio)-1-oxopropan-2-yl)amino)-5-oxopentanoic acid] formation at 20 uM by LC-MS/MS method; format: ADME, tissue-based
[30] = Drug excretion in Wistar Hanover rat feces at 10 mg/kg, iv administered as single dose measured on day 2; format: ADME, organism-based; set-up: dose 10 mg/kg, route intravenous; conditions: faeces, read-out: Drug excretion
[31] = Stability in pH 7.0 buffer; format: physicochemical
Blood [32] = experiment: Drug metabolism in rat whole blood assessed as [(S)-2-amino-5-(((R)-1-((carboxymethyl)amino)-1-oxo-3-((2-oxo-2-(3-oxoazetidin-1-yl)ethyl)thio)propan-2-yl)amino)-5-oxopentanoic acid] formation at 20 uM by LC-MS/MS method; format: ADME, tissue-based
Blood [33] = experiment: Retention time in human whole blood at 20 uM by LC-MS/MS method; format: ADME, tissue-based
Blood [34] = experiment: Drug metabolism in rat whole blood assessed as [(S)-2-amino-5-(((R)-1-((carboxymethyl)amino)-3-((2-(3-nitroazetidin-1-yl)-2-oxoethyl)thio)-1-oxopropan-2-yl)amino)-5-oxopentanoic acid] formation at 20 uM by LC-MS/MS method; format: ADME, tissue-based
Plasma [35] = experiment: AUC (0 to t) in Wistar Hanover rat plasma at 10 mg/kg, iv administered as single dose; format: ADME, organism-based; set-up: dose 10 mg/kg, route intravenous; conditions: in vivo
[36] = Binding affinity to rat hemoglobin assessed as protein bound compound level at 20 uM; format: ADME; conditions: read-out: PB (converted)
Blood [37] = experiment: Drug metabolism in rat whole blood assessed as [(S)-2-amino-5-(((R)-1-((carboxymethyl)amino)-3-((2-(3,3-dinitroazetidin-1-yl)-2-oxoethyl)thio)-1-oxopropan-2-yl)amino)-5-oxopentanoic acid] formation at 20 uM by LC-MS/MS method; format: ADME, tissue-based
[38] = Drug excretion in Wistar Hanover rat feces at 10 mg/kg, iv administered as single dose measured on day 1; format: ADME, organism-based; set-up: dose 10 mg/kg, route intravenous; conditions: faeces, read-out: Drug excretion
Plasma [39] = experiment: AUC (0 to infinity) in Wistar Hanover rat plasma at 10 mg/kg, iv administered as single dose; format: ADME, organism-based; set-up: time infinity, dose 10 mg/kg, route intravenous; conditions: in vivo
Stomach = experiment: Drug level in Wistar Hanover rat stomach at 10 mg/kg, iv administered as single dose after 24 hrs; format: ADME, organism-based; set-up: dose 10 mg/kg, route intravenous; conditions: in vivo
[40] = Binding affinity to dog hemoglobin assessed as protein bound compound level at 1 uM; format: ADME, Canis lupus familiaris; conditions: read-out: PB (converted)
[41] = Drug excretion in Wistar Hanover rat feces at 10 mg/kg, iv administered as single dose measured on day 7; format: ADME, organism-based; set-up: dose 10 mg/kg, route intravenous; conditions: faeces, read-out: Drug excretion
[42] = Ratio of drug level in monkey blood to monkey plasma at 20 uM after 30 mins; format: ADME, Macaca mulatta; conditions: rhesus monkey, whole blood
[43] = Ratio of drug level in monkey blood to monkey plasma at 1 uM after 30 mins; format: ADME, Macaca mulatta; conditions: rhesus monkey, whole blood
Blood [44] = experiment: Drug metabolism in rat whole blood assessed as [(R)-2-(2-amino-3-((2-(3,3-dinitroazetidin-1-yl)-2-oxoethyl)thio)propanamido)acetic acid] formation at 20 uM by LC-MS/MS method; format: ADME, tissue-based
Blood [45] = experiment: Drug metabolism in human whole blood assessed as [(S)-2-amino-5-(((R)-1-((carboxymethyl)amino)-3-((2-(3-(hydroxyimino)azetidin-1-yl)-2-oxoethyl)thio)-1-oxopropan-2-yl)amino)-5-oxopentanoic acid] formation at 20 uM by LC-MS/MS method; format: ADME, tissue-based
Blood [46] = experiment: Drug metabolism in rat whole blood assessed as (R)-2-amino-3-((2-(3,3-dinitroazetidin-1-yl)-2-oxoethyl)thio)propanoic acid] formation at 20 uM by LC-MS/MS method; format: ADME, tissue-based
[47] = Binding affinity to human hemoglobin assessed as protein bound compound level at 20 uM; format: ADME; conditions: read-out: PB (converted)
Blood [48] = experiment: Retention time in rat whole blood at 20 uM by LC-MS/MS method; format: ADME, tissue-based
[49] = Half life in Wistar Hanover rat plasma at 10 mg/kg, iv administered as single dose; format: ADME, organism-based; set-up: dose 10 mg/kg, route intravenous
Blood [50] = experiment: Drug metabolism in rat whole blood assessed as [(R)-2-amino-3-((2-(3-nitroazetidin-1-yl)-2-oxoethyl)thio)propanoic acid] formation at 20 uM by LC-MS/MS method; format: ADME, tissue-based
Nucleic Acid = experiment: Ratio of drug level in blood to plasma in Wistar Hanover rat at 10 mg/kg, iv administered as single dose after 168 hrs; format: ADME, organism-based; set-up: dose 10 mg/kg, route intravenous; conditions: in vivo
Blood [51] = experiment: Drug metabolism in human whole blood assessed as [(R)-2-amino-3-((2-(3-nitroazetidin-1-yl)-2-oxoethyl)thio)propanoic acid] formation at 20 uM by LC-MS/MS method; format: ADME, tissue-based
[52] = Ratio of drug level in blood to plasma in Wistar Hanover rat at 10 mg/kg, iv administered as single dose after 0.083 hrs; format: ADME, organism-based; set-up: dose 10 mg/kg, route intravenous; conditions: whole blood and plasma
Blood [53] = experiment: Drug level in Wistar Hanover rat blood at 10 mg/kg, iv administered as single dose after 24 hrs; format: ADME, organism-based; set-up: dose 10 mg/kg, route intravenous; conditions: in vivo
[54] = Ratio of drug level in rat blood to rat plasma at 20 uM after 30 mins; format: ADME, cell-free; conditions: whole blood
[55] = Half life in Wistar Hanover rat blood at 10 mg/kg, iv administered as single dose; format: ADME, organism-based; set-up: dose 10 mg/kg, route intravenous; conditions: whole blood
[56] = Volume of distribution in Wistar Hanover rat blood at 10 mg/kg, iv administered as single dose; format: ADME, organism-based; set-up: dose 10 mg/kg, route intravenous; conditions: whole blood

N[C@@H](CSCC(=O)N1CC([N+](=O)[O-])([N+](=O)[O-])C1)C(=O)NCC(=O)O
Retention_time (Blood [1]): 6.2 min
Drug metabolism (Blood [2]): metabolite_detected
Retention_time (Blood [3]): 6.2 min
Drug metabolism (Blood [4]): metabolite_detected
Retention_time (Blood [5]): 8 min
Retention_time (Blood [6]): 8 min

O=C(CBr)N1CC([N+](=O)[O-])([N+](=O)[O-])C1 [NIBROZETONE]
Drug metabolism (Blood [7]): metabolite_detected
AUCt (Blood [8]): 14900000 ngequiv.hr/g
blood plasma ratio at 0.5 h, 1 µM [9]: 1
Stability [10]: Stable
Drug metabolism (Blood [11]): metabolite_detected
blood plasma ratio at 0.5 h, 20 µM [12]: 0.99
fraction unbound at 1 µM [13]: 0.902
Drug uptake (Blood [14]): 69600 ngequiv/g
Drug metabolism (Blood [15]): metabolite_detected
Vd [16]: 0.926 L/kg
blood plasma ratio at 0.5 h, 1 µM [17]: 2.1
Retention_time (Blood [1]): 15.1 min
Drug uptake [18]: Not Active
fraction unbound at 20 µM [19]: 0.8
fraction unbound at 1 µM [20]: 0.71
dose excreted [21]: 26%
Drug uptake (Blood [22]): 61.8%
fraction unbound at 1 µM [23]: 0.31
blood plasma ratio at 0.5 h, 1 µM [24]: 0.83
Drug metabolism (Blood [25]): metabolite_detected
dose excreted at 168 h [26]: 36.3%
blood plasma ratio at 0.5 h, 20 µM [27]: 1.2
Drug metabolism (Blood [28]): metabolite_detected
Drug metabolism (Blood [29]): metabolite_detected
dose excreted [30]: 0.3%
Stability [31]: Stable
Retention_time (Blood [3]): 15.1 min
Drug metabolism (Blood [32]): metabolite_detected
Retention_time (Blood [33]): 15.4 min
Drug metabolism (Blood [34]): metabolite_detected
AUCt (Plasma [35]): 160000 ngequiv.hr/g
fraction unbound at 20 µM [36]: 0.21
Drug metabolism (Blood [37]): metabolite_detected
dose excreted [38]: 1.5%
AUC (Plasma [39]): 200000 ngequiv.hr/g
Drug uptake (Stomach): Not Active
fraction unbound at 1 µM [40]: 0.77
Retention_time (Blood [5]): 12.8 min
dose excreted [41]: 0.06%
blood plasma ratio at 0.5 h, 20 µM [42]: 1.5
Retention_time (Blood [6]): 12.8 min
blood plasma ratio at 0.5 h, 1 µM [43]: 0.82
Drug metabolism (Blood [44]): metabolite_detected
Drug metabolism (Blood [45]): metabolite_detected
Drug metabolism (Blood [46]): metabolite_detected
fraction unbound at 20 µM [47]: 0.78
Retention_time (Blood [48]): 15.4 min
half-life [49]: 66.1 h
Drug metabolism (Blood [50]): metabolite_detected
Ratio (Nucleic Acid): 222
Drug metabolism (Blood [51]): metabolite_detected
blood plasma ratio at 0.083 h [52]: 12.4
Drug uptake (Blood [53]): 76500 ngequiv/g
blood plasma ratio at 0.5 h, 20 µM [54]: 4
half-life [55]: > 168 h
Vd [56]: 0.084 L/kg

Reference: ChEMBL document CHEMBL3526110, “Preclinical evaluation of the metabolism and disposition of RRx-001, a novel investigative anticancer agent” (Drug Metab Dispos, 2012)
